Measured values taken from ChEMBL document CHEMBL1201862, “PubChem BioAssay data set” (2004).
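Assay format: 96-well plates, 48-hour exposure. Here, GI50 denotes the concentration required for 50% inhibition of growth.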 Calls of active or inactive are those of the source. Rule as the data show it: active = GI50 up to about 1.1 µM and inactive = higher.

Legend:
Test in all cases: inhibition of tumour cell growth, NCI panel, 48 h
CAKI-1 = tested on: CAKI-1
COLO 205 = tested on: COLO 205
HCC 2998 = tested on: HCC 2998
HCT-15 = tested on: HCT-15
IGROV-1 = tested on: IGROV-1
K562 = tested on: K562
NCI-H226 = tested on: NCI-H226
NCI-H460 = tested on: NCI-H460
OVCAR-3 = tested on: OVCAR-3
OVCAR-4 = tested on: OVCAR-4
RPMI-8226 = tested on: RPMI-8226
SK-MEL-2 = tested on: SK-MEL-2
SK-MEL-5 = tested on: SK-MEL-5
SN12C = tested on: SN12C
UACC-257 = tested on: UACC-257
UO-31 = tested on: UO-31
786-0 = tested on: 786-0
MDA-MB-231 = tested on: MDA-MB-231
TK-10 = tested on: TK-10
PC-3 = tested on: PC-3

SMILES	GI50 (CAKI-1)	GI50 (COLO 205)	GI50 (HCC 2998)	GI50 (HCT-15)	GI50 (IGROV-1)	GI50 (K562)	GI50 (NCI-H226)	GI50 (NCI-H460)	GI50 (OVCAR-3)	GI50 (OVCAR-4)	GI50 (RPMI-8226)	GI50 (SK-MEL-2)	GI50 (SK-MEL-5)	GI50 (SN12C)	GI50 (UACC-257)	GI50 (UO-31)	GI50 (786-0)	GI50 (MDA-MB-231)	GI50 (TK-10)	GI50 (PC-3)
N#CC(OC1OC(COC2OC(CO)C(O)C(O)C2O)C(O)C(O)C1O)c1ccccc1 (configuration not stated)	> 225 µM (inactive)	> 225 µM (inactive)	> 225 µM (inactive)	> 225 µM	> 225 µM (inactive)	> 225 µM (inactive)	> 225 µM (inactive)	> 225 µM (inactive)	> 225 µM (inactive)	> 225 µM (inactive)	> 225 µM (inactive)	> 225 µM (inactive)	> 225 µM (inactive)	> 225 µM (inactive)	> 225 µM (inactive)	> 225 µM (inactive)	–	–	–	–
Cc1ccc(Nc2nc(NNC(=O)Cc3ccccc3)nc(NNC(=O)c3ccncc3)n2)cc1	> 10 µM (inactive)	> 10 µM (inactive)	> 10 µM (inactive)	> 10 µM	> 10 µM (inactive)	> 10 µM (inactive)	–	> 10 µM (inactive)	–	> 10 µM (inactive)	> 10 µM (inactive)	–	> 10 µM (inactive)	> 10 µM (inactive)	> 10 µM (inactive)	8.49 µM (inactive)	> 10 µM (inactive)	> 10 µM (inactive)	> 10 µM (inactive)	–
Cn1c(=O)nc2n(-c3ccc(Br)cc3)c3ccccc3nc-2c1=O	4.86 µM (inactive)	2.64 µM (inactive)	2.21 µM (inactive)	3.55 µM	11.7 µM (inactive)	5.43 µM (inactive)	11 µM (inactive)	1.82 µM (inactive)	2.48 µM (inactive)	3.51 µM (inactive)	3.16 µM (inactive)	9.33 µM (inactive)	1.77 µM (inactive)	4.97 µM (inactive)	2.69 µM (inactive)	10.4 µM (inactive)	3.74 µM (inactive)	–	8.93 µM (inactive)	–
CCOC(=O)C(N=C(c1ccccc1)c1ccccc1)N(C(=O)OC(C)(C)C)C(=O)OC(C)(C)C (configuration not stated)	> 100 µM (inactive)	> 100 µM (inactive)	> 100 µM (inactive)	> 100 µM	> 100 µM (inactive)	> 100 µM (inactive)	> 100 µM (inactive)	–	> 100 µM (inactive)	> 100 µM (inactive)	64.3 µM (inactive)	> 100 µM (inactive)	> 100 µM (inactive)	> 100 µM (inactive)	> 100 µM (inactive)	> 100 µM (inactive)	> 100 µM (inactive)	–	> 100 µM (inactive)	–
O=P1(Oc2ccc(Cl)cc2Cl)Oc2cc3ccccc3cc2O1	> 71.8 µM (inactive)	97.9 µM (inactive)	20.8 µM (inactive)	50 µM	64.7 µM (inactive)	46.2 µM (inactive)	> 76.6 µM (inactive)	49.9 µM (inactive)	28.4 µM (inactive)	76 µM (inactive)	18.8 µM (inactive)	81.1 µM (inactive)	59 µM (inactive)	> 94.4 µM (inactive)	> 100 µM (inactive)	24.9 µM (inactive)	–	–	–	–
Cc1nc(Nc2ccccc2)sc1C(=O)NNC(N)=O	> 100 µM (inactive)	> 100 µM (inactive)	> 100 µM (inactive)	–	> 100 µM (inactive)	> 100 µM (inactive)	> 100 µM (inactive)	> 100 µM (inactive)	> 100 µM (inactive)	> 100 µM (inactive)	> 100 µM (inactive)	> 100 µM (inactive)	> 100 µM (inactive)	> 100 µM (inactive)	27.4 µM (inactive)	> 100 µM (inactive)	> 100 µM (inactive)	–	> 100 µM (inactive)	–
Cc1nc(O)nc(N/N=C/c2ccc(Cl)cc2)c1C(=O)NC(C)(CO)CO	> 100 µM (inactive)	> 100 µM (inactive)	> 100 µM (inactive)	> 100 µM	> 100 µM (inactive)	> 100 µM (inactive)	> 100 µM (inactive)	> 100 µM (inactive)	> 100 µM (inactive)	> 100 µM (inactive)	> 100 µM (inactive)	> 100 µM (inactive)	> 100 µM (inactive)	> 100 µM (inactive)	> 100 µM (inactive)	> 100 µM (inactive)	–	–	> 100 µM (inactive)	> 100 µM (inactive)
CC(=O)Nc1ccc(C(=O)NN2C(=O)C(Cl)C2c2cc(Br)cc(Br)c2O)cc1 (configuration not stated)	> 100 µM (inactive)	> 100 µM (inactive)	> 100 µM (inactive)	> 100 µM	52.6 µM (inactive)	> 100 µM (inactive)	> 100 µM (inactive)	> 100 µM (inactive)	> 100 µM (inactive)	> 100 µM (inactive)	> 100 µM (inactive)	> 100 µM (inactive)	> 100 µM (inactive)	> 100 µM (inactive)	> 100 µM (inactive)	> 100 µM (inactive)	> 100 µM (inactive)	–	–	–
COc1cc(Nc2cnc3cc(F)c(F)cc3n2)cc(OC)c1OC	> 100 µM (inactive)	> 100 µM (inactive)	–	> 100 µM	> 100 µM (inactive)	–	> 100 µM (inactive)	> 100 µM (inactive)	> 100 µM (inactive)	> 100 µM (inactive)	–	84.3 µM (inactive)	> 100 µM (inactive)	> 100 µM (inactive)	> 100 µM (inactive)	> 100 µM (inactive)	> 100 µM (inactive)	–	> 100 µM (inactive)	> 100 µM (inactive)
CCC(COC(=O)CC[C@@H](NC(=O)C(C)NC(=O)C(C)OC1C(O)C(CO)OC(OCc2ccccc2)C1NC(C)=O)C(N)=O)NC1c2ccccc2Nc2cccc([N+](=O)[O-])c21 (some centres not stated)	> 100 µM (inactive)	> 100 µM (inactive)	> 100 µM (inactive)	> 100 µM	> 100 µM (inactive)	> 100 µM (inactive)	> 100 µM (inactive)	54 µM (inactive)	80.2 µM (inactive)	> 100 µM (inactive)	> 100 µM (inactive)	> 100 µM (inactive)	> 100 µM (inactive)	> 100 µM (inactive)	> 100 µM (inactive)	> 100 µM (inactive)	67.1 µM (inactive)	–	> 100 µM (inactive)	–
NCOC(=O)Cc1ccc(Br)cc1	–	> 100 µM (inactive)	–	> 100 µM	> 100 µM (inactive)	> 100 µM (inactive)	> 100 µM (inactive)	> 100 µM (inactive)	> 100 µM (inactive)	–	> 100 µM (inactive)	> 100 µM (inactive)	> 100 µM (inactive)	> 100 µM (inactive)	> 100 µM (inactive)	> 100 µM (inactive)	> 100 µM (inactive)	> 100 µM (inactive)	> 100 µM (inactive)	> 100 µM (inactive)
CC(=O)c1ccc(NC(=O)C(=O)C(C#N)CC(C)(C)C=O)cc1 (configuration not stated)	> 100 µM (inactive)	> 100 µM (inactive)	> 100 µM (inactive)	> 100 µM	> 100 µM (inactive)	> 100 µM (inactive)	> 100 µM (inactive)	> 100 µM (inactive)	> 100 µM (inactive)	> 100 µM (inactive)	> 100 µM (inactive)	> 100 µM (inactive)	> 100 µM (inactive)	> 100 µM (inactive)	> 100 µM (inactive)	> 100 µM (inactive)	> 100 µM (inactive)	–	> 100 µM (inactive)	–
O=C(CCc1nnc(S)[nH]1)Nc1cccc(C(F)(F)F)c1	> 100 µM (inactive)	80 µM (inactive)	> 100 µM (inactive)	> 100 µM	> 100 µM (inactive)	> 100 µM (inactive)	> 100 µM (inactive)	> 100 µM (inactive)	> 100 µM (inactive)	> 100 µM (inactive)	> 100 µM (inactive)	> 100 µM (inactive)	> 100 µM (inactive)	> 100 µM (inactive)	> 100 µM (inactive)	> 100 µM (inactive)	> 100 µM (inactive)	–	> 100 µM (inactive)	–
CCCCC#C[I+]c1ccccc1	14 µM (inactive)	15.4 µM (inactive)	20.1 µM (inactive)	8.28 µM	19.9 µM (inactive)	15.2 µM (inactive)	15.5 µM (inactive)	11.3 µM (inactive)	16 µM (inactive)	14.9 µM (inactive)	–	17.7 µM (inactive)	17.3 µM (inactive)	14.5 µM (inactive)	16.3 µM (inactive)	16.4 µM (inactive)	15.5 µM (inactive)	–	15.1 µM (inactive)	–
CC1=C(O)C(=O)[C@@H]2O[C@@H]2C1=O	5.69 µM (inactive)	4.72 µM (inactive)	15.2 µM (inactive)	7.01 µM	20.1 µM (inactive)	5.64 µM (inactive)	14.5 µM (inactive)	19 µM (inactive)	6.5 µM (inactive)	14.6 µM (inactive)	3.46 µM (inactive)	16 µM (inactive)	16.1 µM (inactive)	19.3 µM (inactive)	11.1 µM (inactive)	22.3 µM (inactive)	–	–	–	–
COc1ccc(N[S+]([O-])C2CCCCC2)cc1 (configuration not stated)	> 100 µM (inactive)	> 100 µM (inactive)	59.2 µM (inactive)	> 100 µM	> 100 µM (inactive)	> 100 µM (inactive)	> 100 µM (inactive)	> 100 µM (inactive)	> 100 µM (inactive)	–	> 100 µM (inactive)	–	> 100 µM (inactive)	> 100 µM (inactive)	> 100 µM (inactive)	> 100 µM (inactive)	> 100 µM (inactive)	> 100 µM (inactive)	> 100 µM (inactive)	–
